Measurements reported in patent US10406094B2, “Composition for fast dry of hair” (The Procter & Gamble Company, priority 2016, dated 2019).

Test: DVS measurement: % reduction in amount of water absorbed by treated hair
Set-up: % reduction in water absorbed: concentration or dose not given beside the values
Conditions: for % Reduction in amount of water absorbed: material at 1% wt/vol; for % reduction in water absorbed: Molecular Class II
Experimental: The leave-on treatment compositions are prepared by adding the Moisture Control Materials and perfume, if needed, into a 50:50 ethanol/water carrier and stirred until complete dissolution. The solution pH is adjusted using sodium hydroxide (50% w/w) to a final pH of 4.0-4.2.
The hair is allowed to air dry and then analyzed using the DVS method described above. The experiment is repeated for a dosage of 0.50 g of solution per g of hair. The hair in this case is also assessed by expert graders, as described below, in addition to the DVS analysis.
An amount of 25-30 mg of hair with length of approximately 1 cm is weighed and hold for equilibration at 0% RH for 16 hours. After the 16-hour period, the RH is increased to 10% and maintained at this level for 6 hours. Then, the RH is increased by 10% after every 6 hours interval until it reaches 90% RH. The % reduction in amount of water absorbed is calculated as follows:
A=Amount of water absorbed by the hair treated with composition containing the Moisture Control Material
B=Amount of water absorbed by the hair treated with control composition (only carrier) containing no Moisture Control Material % reduction in amount of water absorbed=[(B−A)×100]/B

Compound	% Reduction in amount of water absorbed	% reduction in water absorbed
O=C(O)c1ccc(O)cc1O [2,4-Dihydroxybenzoic acid]	30%	–
O=C(O)c1cc(O)c(C(=O)O)cc1O [2,5 Dihydroxyterephthalic acid]	18%	–
O=C(O)c1cc(O)ccc1O [2,5-Dihydroxybenzoic acid]	27%	–
O=C(O)c1c(O)cccc1O [2,6-Dihydroxybenzoic acid]	35%	–
Nc1ccccc1O [2-Aminophenol]	14%	–
CCCCCCCCC(CO)CCCCCC (stereo not drawn) [2-Hexyl-1-decanol]	–	11%
O=C(OCCO)c1ccccc1O [2-Hydroxyethyl salicylate]	–	10%
O=C(O)c1ccc(O)c(O)c1 [3,4-Dihydroxybenzoic acid]	20%	–
O=C(O)c1cc(Cl)c(O)c(Cl)c1 [3,5-Dichloro-4-hydroxybenzoic acid]	15%	–
O=C(O)c1cc(O)cc(O)c1 [3,5-Dihydroxybenzoic acid]	15%	–
Nc1cccc(C(=O)O)c1 [3-Aminobenzoic acid]	12%	–
Nc1cccc(O)c1 [3-Aminophenol]	14%	–
O=C(O)c1ccc(O)c(Cl)c1 [3-Chloro-4-hydroxybenzoic acid]	11%	–
Cl.Nc1cccc(O)c1 [3-Hydroxyanilinium chloride]	16%	–
O=C(O)c1cccc(O)c1 [3-Hydroxybenzoic Acid]	20%	–
Nc1ccc(C(=O)O)cc1 [4-Aminobenzoic acid]	12%	–
Nc1ccc(O)cc1 [4-Aminophenol]	10%	–

Compound	% Reduction in amount of water absorbed	% reduction in water absorbed
O=S(=O)(O)c1ccc(O)cc1 [4-Hydroxybenzenesulphonic acid]	26%	–
O=C(O)c1cc(Cl)ccc1O [5-Chlorosalicylic acid]	28%	–
CCOC(=O)c1cc(O)c(O)c(O)c1 [Ethyl gallate]	–	17%
CCCCC/C=C\C/C=C\CCCCCCCC(=O)OCC [Ethyl linoleate]	–	8%
O=C(O)c1cc(O)c(O)c(O)c1 [Gallic acid]	15%	–
CCCCCCCC/C=C\CCCCCCCC(=O)OCC(O)CO (stereo not drawn) [Glyceryl monooleate]	–	5%
CC(C)C(=O)O [Isobutyric acid]	–	5%
CCCCCCCCCCCCCC(=O)OC(C)C [Isopropyl myristate]	–	12%
CC(C)CCCCCCCCCCCCCCCOC(=O)CCCCCCCCCCCCCCC(C)C [Isostearyl isostearate]	–	11%
O=C(O)CNc1ccc(O)cc1 [N-4-Hydroxyphenylglycine]	15%	–
CCCCCCCC/C=C\CCCCCCCC(=O)O [Oleic Acid]	–	14%
C/C(=C\CO)CCC[C@H](C)CCC[C@H](C)CCCC(C)C [Phytol]	–	14%
CCCCCC[C@@H](O)C/C=C\CCCCCCCC(=O)O [Ricinoleic acid]	–	8.8%
COc1cc(/C=C/C(=O)O)ccc1O [Trans-Ferulic Acid]	6%	–
O=C(O)/C=C/c1ccc(O)cc1 [p-Coumaric acid]	8.8%	–
Sorbitan caprylate	–	11%
